{"source": "patent US20090012053A1", "about": "“Use of LXR agonists for the treatment of osteoarthritis” (Wyeth, priority 2006, published 2009)", "test_system": "aggrecanase", "assay": "Western blot of aggrecanase-generated aggrecan neoepitopes (BC3, AGEG antibodies) in culture medium of human OA cartilage explants", "type": "cell-based", "description": "FIG. 4A is a Western blot showing aggrecanase-generated aggrecan neoepitopes using BC-3 antibody, which recognizes the N-terminus on aggrecanase-generated aggrecan catabolites. Cartilage explants from two human donors with end stage OA (after joint replacement surgery) were used. Donor #259 is a patient, and donor #261 is a patient. Lanes 1, 5: vehicle. Lanes 2, 6: TO901317 (2 μM). Lanes 3, 7: IL-1β+oncostatin M (OSM) (10 ng/ml each). Lanes 4, 8: IL-1β+OSM+TO901317. FIG. 4B is a Western blot showing aggrecanase-generated aggrecan neoepitopes using AGEG antibody, which recognizes a different epitope on aggrecanase-generated aggrecan catabolites. Lanes 1, 5: vehicle. Lanes 2, 6: TO901317 (2 μM). Lanes 3, 7: IL-1β+OSM (10 ng/ml each). Lanes 4, 8: IL-1β+OSM+TO901317. Fresh cartilage from human OA donors was cut into pieces (˜10 mg/piece, ˜2×2×2 mm). The cartilage explants were randomized into 24 well plates (˜250 mg wet weight/well). Three wells of explants were included for each treatment group. The explants were cultured in 1 ml DMEM/F-12 with 10% FBS for 3 days, then the complete medium was replaced with serum-free medium. Twelve hours later, the medium was removed and fresh serum-free medium (1 ml) was added, followed by LXR agonist T0901317 treatment (2 μM). IL1β/Oncostatin M (10 ng/ml each) were added 8 hours later. The explants were then cultured in the presence or absence of LXR agonist T0901317 and IL1β/Oncostatin M for additional 20 hours. 180 μl of pooled culture medium from each treatment group was deglycosylated with chondroitinase ABC, keratanase, keratanase II in the presence of 50 mM EDTA at 37° C. for 3 hrs. The samples were then concentrated and separated in a 4-12% SDS-PAGE gel. Western analysis was performed using either mouse BC3 neoepitope antibody (1:1500), or rabbit anti-AGEG antibody (1:1000) as the primary antibody, and anti-mouse or anti-rabbit IgG antibody conjugated with […] (1:5000) as the secondary antibody. […] Treatment with T0901317 blocked the induction of BC3 and AEEG release by cytokines. In the experiment using donor #261, BC3- and AEGE-containing aggrecan fragments were released into the culture medium from untreated cartilage explants.", "data": [{"compound": "O=S(=O)(c1ccccc1)N(CC(F)(F)F)c1ccc(C(O)(C(F)(F)F)C(F)(F)F)cc1", "note": "[Formula T0901317, N-(2,2,2-trifluoroethyl)-N-{4-[2,2,2-trifluoro-1-hydroxy-1-(trifluoromethyl)ethyl]phenyl}benzene sulfonamide]", "values": [{"measurement": "cytokine-induced release of BC3 containing aggrecan fragments into the culture medium", "setting": "donor #259, 2 μM, IL1β/Oncostatin M 10 ng/ml each, FIG. 4A", "result": "blocked"}, {"measurement": "cytokine-induced release of AGEG containing aggrecan fragments into the culture medium", "setting": "donor #259, 2 μM, IL1β/Oncostatin M 10 ng/ml each, FIG. 4B", "result": "blocked"}, {"measurement": "cytokine-induced release of AGEG-containing fragment from the explants", "setting": "donor #261, 2 μM, IL1β/Oncostatin M 10 ng/ml each, FIG. 4B", "result": "it was blocked"}, {"measurement": "amount of BC3-containing aggrecan fragments released into the culture medium without cytokines", "setting": "donor #261, 2 μM, no cytokine, FIG. 4A", "result": "reduced the amount of these fragments"}, {"measurement": "amount of AGEG-containing aggrecan fragments released into the culture medium without cytokines", "setting": "donor #261, 2 μM, no cytokine, FIG. 4B", "result": "reduced the amount of these fragments"}]}]}
